Assay results published in article PMC7175277, “Hydroxylamine Analogue of Agmatine: Magic Bullet for Arginine Decarboxylase” (Biomolecules, 2020).

Legend:
[1] = system: Acremonium chrysogenum wild-type (WT) ATCC 11550; experiment: Fungal growth inhibition (drop-dilution, CD agar), WT strain; assay type: cell-based; conditions: Hapsidospora chrysogena, ATCC11550, 336 h, 5 mM inhibitor, 14 days after inoculation on CD medium
Text: Two strains of Acremonium chrysogenum were used in this study: the wild-type (Brotzu) isolate ATCC 11550 (WT) and high-cephalosporin-yielding RNCM F-4081D (HY), derived from the WT [37]. The cultivation conditions were the same as previously described. The filamentous fungi were cultivated on agarized Czapek-Dox (CD) medium (30 g/L sucrose, 2 g/L NaNO3, 1 g/L K2HPO4, 0.5 g/L MgSO4×7 H2O, 0.5 g/L KCl, 0.01 g/L FeSO4×7 H2O, 20 g/L agar, pH 7.0–7.4). To determine the toxic effect of AO-Agm, APA, DFMA and DFMO on the growth of fungal cells the drop-dilution method was used with some modifications as described earlier. Cells were collected from agar slants and diluted with 0.9% NaCl solution up to OD600 = 0.5 (basic concentration), followed by serial tenfold dilutions with the same solution. […] The inoculated Petri dishes were incubated for 21 days at 26 °C. The inhibitory effects of the compounds were measured every three days after inoculation and evaluated by measuring the ratio of colony growth on agarized CD medium supplemented with AO-Agm, APA, DFMA, or DFMO to the growth in the control (agarized CD medium without any additions). The formula: growth inhibition % = [(Dc − Dt)/Dc] × 100, where Dc indicates the colony diameter in control set, and Dt indicates the colony diameter in the treatment set that was used to determine the percent of fungal growth inhibition. The data recorded were measured in triplicate and repeated at least twice.

mouse kidney ODC = molecular target: T1, mouse kidney ODC (Mus musculus, UniProt P00860); experiment: Assay of mouse kidney ODC activity; assay type: biochemical; conditions: 0.4 mM L-Orn; 0.4 mM PLP
T1 construct: from tissue; host or cells: C57Bl/6J male mouse kidney, 12,000 g supernatant of the homogenate
T1 sequence (P00860 1-461): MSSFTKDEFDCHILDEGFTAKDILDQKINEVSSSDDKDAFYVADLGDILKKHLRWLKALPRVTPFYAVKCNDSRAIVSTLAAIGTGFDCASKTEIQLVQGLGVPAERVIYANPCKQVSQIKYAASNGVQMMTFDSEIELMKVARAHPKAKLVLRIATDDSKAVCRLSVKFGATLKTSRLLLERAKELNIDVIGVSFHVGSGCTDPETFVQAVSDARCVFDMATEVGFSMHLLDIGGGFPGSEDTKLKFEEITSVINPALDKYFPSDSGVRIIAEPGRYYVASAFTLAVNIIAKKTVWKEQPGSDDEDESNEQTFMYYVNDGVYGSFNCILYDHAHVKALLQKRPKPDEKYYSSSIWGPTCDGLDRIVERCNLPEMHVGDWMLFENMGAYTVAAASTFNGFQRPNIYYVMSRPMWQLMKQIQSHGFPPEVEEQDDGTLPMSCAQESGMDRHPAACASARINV
Procedure: C57Bl/6J male mouse kidney was homogenized with TissueLyzer (Qiagen) to 2 volumes of buffer containing 50 mM Tris-HCl pH 7.4, 1 mM DTT, 1 mM EDTA, 0.1% Triton X-100 and 1× Complete EDTA-free protease inhibitor cocktail (Roche) and centrifuged at 12,000 g for 30 min at +4 °C. Aliquots of the supernatant were mixed with 1–5000 μM of AO-Agm and the ODC assay was carried out as previously described. The reaction mixture contained 0.4 mM PLP and 0.4 mM L-Orn.

E. coli ADC = molecular target: T2, E. coli ADC (Escherichia coli, UniProt P21170); experiment: Ultrafiltration of ADC~PLP=AO-Agm complex, then ADC activity assay; assay type: biochemical; conditions: 15 μM AO-Agm
T2 construct: The kinetic parameters determined for the partially purified biosynthetic ADC from E. coli; endogenous in cells; host or cells: E. coli DH5α (39-53% ammonium sulphate fraction of the lysate, desalted)
T2 sequence (P21170 1-658): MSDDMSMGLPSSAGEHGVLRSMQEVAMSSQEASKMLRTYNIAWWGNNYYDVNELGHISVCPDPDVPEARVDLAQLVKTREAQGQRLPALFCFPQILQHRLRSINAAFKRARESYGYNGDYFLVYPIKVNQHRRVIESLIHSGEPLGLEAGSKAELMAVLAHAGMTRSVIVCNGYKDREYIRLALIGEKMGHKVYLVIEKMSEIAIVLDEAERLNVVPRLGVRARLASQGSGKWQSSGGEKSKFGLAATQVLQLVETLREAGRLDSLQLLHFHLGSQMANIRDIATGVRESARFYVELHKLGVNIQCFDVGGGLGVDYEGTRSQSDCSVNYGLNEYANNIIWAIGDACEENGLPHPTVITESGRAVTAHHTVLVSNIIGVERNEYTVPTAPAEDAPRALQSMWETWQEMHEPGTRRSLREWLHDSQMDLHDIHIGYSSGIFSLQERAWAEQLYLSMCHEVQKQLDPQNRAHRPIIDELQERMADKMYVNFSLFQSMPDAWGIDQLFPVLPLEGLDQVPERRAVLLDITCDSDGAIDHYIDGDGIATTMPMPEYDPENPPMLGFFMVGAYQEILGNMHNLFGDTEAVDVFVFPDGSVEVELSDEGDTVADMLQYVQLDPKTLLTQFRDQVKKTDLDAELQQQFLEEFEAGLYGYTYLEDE
Procedure: Partially purified enzyme preparation was preincubated for 15 min with 15 μM AO-Agm (which produced 100% inhibition) or H2O (control) and 0.1 mM PLP in the assay buffer. The samples were placed on ice, and half of the reactions were filtered through a 3K cutoff ultrafiltration device (Millipore) and washed twice with 600 μL of buffer containing 50 mM Tris-HCl pH 7.4, 1 mM DTT and 0.1 mM PLP. ADC activity was then assayed.

[2] = system: DU145 prostate cancer cells; experiment: Growth of DU145 cells; assay type: cell-based; conditions: for Growth: 3 days
Procedure: DU145 prostate cancer cells were cultured in high-glucose Dulbecco’s Modified Eagle’s Medium supplemented with 10% heat-inactivated fetal bovine serum, 2 mM L-glutamine and 50 μg/mL gentamycin (all from Sigma-Aldrich). The cells were plated on 6-well plates and allowed to attach overnight. […] The cells were harvested, and the pellet was mixed with 150 μL of 5% sulphosalicylic acid containing 5 μM diaminoheptane (internal standard). Polyamine analysis was carried out as described previously.

`N=C(N)NCCCON` [AO-Agm, 1-aminooxy-3-guanidinopropane] was tested, and the inhibition at 5000 µM [1] was 34%, the IC50 (mouse kidney ODC) was 5.3 ± 0.7 µM and the inhibition at 15 µM (E. coli ADC; 15 min preincubation, 0.1 mM PLP) was 100%. For the same compound, the “ADC activity after ultrafiltration and washing of the inhibitory complex” value (E. coli ADC; buffer containing 0.1 mM PLP) was “fully restored ADC activity”, the Growth ([2]; AO-Agm 10 μM in the presence of SC (1 mM)) was 0.94 ± 0.03 Fold and the Growth ([2]; AO-Agm 10 μM, no SC) was 0.96 ± 0.02 Fold. For the same compound, the “Proliferation and intracellular polyamine pools of DU145 cells” value ([2]; AO-Agm 0.01 mM and 0.1 mM) was “without effect”, the Growth ([2]; AO-Agm 100 μM in the presence of SC (1 mM)) was 0.97 ± 0.02 Fold and the Growth ([2]; AO-Agm 100 μM, no SC) was 0.96 ± 0.04 Fold. The “Proliferation of DU145 cells” value ([2]; AO-Agm 1 mM) was “moderately inhibited”, the Growth ([2]; AO-Agm 1 mM in the presence of SC (1 mM)) was 0.45 ± 0.01 Fold and the Growth ([2]; AO-Agm 1 mM, no SC) was 0.72 ± 0.04 Fold.
